Assay results published in US9834518B2, “Compounds for inhibiting cell proliferation in EGFR-driven cancers” (ARIAD Pharmaceuticals, Inc., priority 2011, dated 2017).

Key:
[1] = test system: BAF3 EGFR L858R-T790M PURO POOL; assay: Cell proliferation (MTT), BAF3 EGFR L858R-T790M; type: cell-based; conditions: Ba/F3 EGFR
In short: (§1)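 MTT read-out; BaF3 lines carrying EGFR mutations vs wildtype-EGFR BaF3 control.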

[2] = test system: BAF3 PARENTAL; assay: Cell proliferation (MTT), BAF3 parental; type: cell-based; conditions: Mus musculus
Method: We also assessed the antiproliferative activity of compounds of Formula (I) against BaF3 cells expressing the target EGFR mutations or control (i.e., cell lines expressing wildtype EGFR). Assays were conducted using MTT.

[3] = molecular target: human EGFR (native sequence) (Homo sapiens, UniProt P00533); assay: Kinase inhibition, human EGFR (native sequence); type: biochemical; conditions: 10 μM ATP; 10 pt curves, 3 μM top concentration (singlicates)
Sequence of human EGFR (native sequence) (P00533 25-1210): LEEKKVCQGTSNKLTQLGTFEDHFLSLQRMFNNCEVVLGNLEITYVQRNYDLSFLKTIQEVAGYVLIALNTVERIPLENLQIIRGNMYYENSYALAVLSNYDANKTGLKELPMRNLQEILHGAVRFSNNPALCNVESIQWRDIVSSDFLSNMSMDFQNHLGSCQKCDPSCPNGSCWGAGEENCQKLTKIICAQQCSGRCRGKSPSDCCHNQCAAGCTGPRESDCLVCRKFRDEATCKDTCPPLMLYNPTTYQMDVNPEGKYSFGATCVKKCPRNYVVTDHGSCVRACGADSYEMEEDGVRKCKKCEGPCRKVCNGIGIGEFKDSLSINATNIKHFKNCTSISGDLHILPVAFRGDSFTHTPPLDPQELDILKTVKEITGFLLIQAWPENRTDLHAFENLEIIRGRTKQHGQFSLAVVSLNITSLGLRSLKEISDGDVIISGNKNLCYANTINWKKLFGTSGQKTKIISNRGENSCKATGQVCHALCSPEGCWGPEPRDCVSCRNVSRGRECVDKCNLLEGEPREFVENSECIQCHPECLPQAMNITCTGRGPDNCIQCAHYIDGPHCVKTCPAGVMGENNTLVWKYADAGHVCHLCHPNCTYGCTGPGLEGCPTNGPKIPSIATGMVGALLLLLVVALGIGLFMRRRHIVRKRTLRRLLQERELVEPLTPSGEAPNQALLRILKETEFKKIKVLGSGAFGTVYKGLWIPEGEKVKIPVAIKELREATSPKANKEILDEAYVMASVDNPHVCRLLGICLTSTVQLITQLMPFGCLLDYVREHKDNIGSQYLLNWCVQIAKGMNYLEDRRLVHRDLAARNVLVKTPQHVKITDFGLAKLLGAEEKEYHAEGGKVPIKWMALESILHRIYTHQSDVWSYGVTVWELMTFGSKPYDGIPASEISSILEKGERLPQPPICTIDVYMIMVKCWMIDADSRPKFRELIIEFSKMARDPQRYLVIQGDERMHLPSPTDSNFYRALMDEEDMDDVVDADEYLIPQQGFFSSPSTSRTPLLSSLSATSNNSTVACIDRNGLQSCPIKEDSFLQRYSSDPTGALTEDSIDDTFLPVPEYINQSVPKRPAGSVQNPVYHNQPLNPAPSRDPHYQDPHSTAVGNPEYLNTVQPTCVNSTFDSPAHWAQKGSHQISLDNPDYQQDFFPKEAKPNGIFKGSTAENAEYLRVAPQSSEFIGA
In short: (§2)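 Singlicate 10 pt curves; top conc. 3 μM; ATP 10 μM.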

[4] = molecular target: EGFR bearing the L858R mution (Homo sapiens, UniProt P00533, L858R); assay: Kinase inhibition, EGFR L858R; type: biochemical; conditions: 10 μM ATP; 10 pt curves, 3 μM top concentration (singlicates)
Sequence of EGFR bearing the L858R mution (P00533 25-1210 L858R): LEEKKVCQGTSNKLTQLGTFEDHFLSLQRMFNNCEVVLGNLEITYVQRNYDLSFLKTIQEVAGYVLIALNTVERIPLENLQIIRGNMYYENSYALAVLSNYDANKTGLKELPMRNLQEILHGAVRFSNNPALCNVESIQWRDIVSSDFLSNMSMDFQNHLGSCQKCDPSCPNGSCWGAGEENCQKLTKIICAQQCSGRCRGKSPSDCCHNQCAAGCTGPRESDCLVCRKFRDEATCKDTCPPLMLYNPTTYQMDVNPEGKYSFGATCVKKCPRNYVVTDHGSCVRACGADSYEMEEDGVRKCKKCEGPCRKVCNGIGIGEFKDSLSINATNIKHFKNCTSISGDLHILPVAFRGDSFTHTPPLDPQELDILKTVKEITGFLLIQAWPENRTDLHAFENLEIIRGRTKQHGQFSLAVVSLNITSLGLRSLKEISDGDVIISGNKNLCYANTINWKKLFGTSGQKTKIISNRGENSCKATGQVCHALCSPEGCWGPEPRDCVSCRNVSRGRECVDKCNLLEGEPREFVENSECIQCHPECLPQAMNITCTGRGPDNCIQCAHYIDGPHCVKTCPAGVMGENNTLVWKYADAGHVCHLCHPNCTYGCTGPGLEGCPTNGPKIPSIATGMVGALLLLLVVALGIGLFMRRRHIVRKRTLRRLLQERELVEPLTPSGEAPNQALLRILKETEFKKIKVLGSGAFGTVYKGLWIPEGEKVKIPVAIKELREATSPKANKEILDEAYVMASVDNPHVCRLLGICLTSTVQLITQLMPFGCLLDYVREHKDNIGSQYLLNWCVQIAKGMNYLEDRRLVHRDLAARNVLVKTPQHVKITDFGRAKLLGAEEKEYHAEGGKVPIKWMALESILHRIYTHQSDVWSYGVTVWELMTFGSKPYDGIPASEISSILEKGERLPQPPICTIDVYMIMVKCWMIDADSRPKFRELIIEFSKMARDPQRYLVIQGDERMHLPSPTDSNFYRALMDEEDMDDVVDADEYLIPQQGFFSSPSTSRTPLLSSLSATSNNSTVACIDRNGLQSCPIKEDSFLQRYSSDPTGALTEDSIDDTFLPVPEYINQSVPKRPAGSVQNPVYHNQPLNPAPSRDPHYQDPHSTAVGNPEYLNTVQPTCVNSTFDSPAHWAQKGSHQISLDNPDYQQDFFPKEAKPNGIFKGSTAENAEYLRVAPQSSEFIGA
In short: as §2

[5] = molecular target: EGFR bearing the L858R/T790M double mutation (Homo sapiens, UniProt P00533, L858R/T790M); assay: Kinase inhibition, EGFR L858R/T790M; type: biochemical; conditions: 10 μM ATP; 10 pt curves, 3 μM top concentration (singlicates)
Sequence of EGFR bearing the L858R/T790M double mutation (P00533 25-1210 T790M/L858R): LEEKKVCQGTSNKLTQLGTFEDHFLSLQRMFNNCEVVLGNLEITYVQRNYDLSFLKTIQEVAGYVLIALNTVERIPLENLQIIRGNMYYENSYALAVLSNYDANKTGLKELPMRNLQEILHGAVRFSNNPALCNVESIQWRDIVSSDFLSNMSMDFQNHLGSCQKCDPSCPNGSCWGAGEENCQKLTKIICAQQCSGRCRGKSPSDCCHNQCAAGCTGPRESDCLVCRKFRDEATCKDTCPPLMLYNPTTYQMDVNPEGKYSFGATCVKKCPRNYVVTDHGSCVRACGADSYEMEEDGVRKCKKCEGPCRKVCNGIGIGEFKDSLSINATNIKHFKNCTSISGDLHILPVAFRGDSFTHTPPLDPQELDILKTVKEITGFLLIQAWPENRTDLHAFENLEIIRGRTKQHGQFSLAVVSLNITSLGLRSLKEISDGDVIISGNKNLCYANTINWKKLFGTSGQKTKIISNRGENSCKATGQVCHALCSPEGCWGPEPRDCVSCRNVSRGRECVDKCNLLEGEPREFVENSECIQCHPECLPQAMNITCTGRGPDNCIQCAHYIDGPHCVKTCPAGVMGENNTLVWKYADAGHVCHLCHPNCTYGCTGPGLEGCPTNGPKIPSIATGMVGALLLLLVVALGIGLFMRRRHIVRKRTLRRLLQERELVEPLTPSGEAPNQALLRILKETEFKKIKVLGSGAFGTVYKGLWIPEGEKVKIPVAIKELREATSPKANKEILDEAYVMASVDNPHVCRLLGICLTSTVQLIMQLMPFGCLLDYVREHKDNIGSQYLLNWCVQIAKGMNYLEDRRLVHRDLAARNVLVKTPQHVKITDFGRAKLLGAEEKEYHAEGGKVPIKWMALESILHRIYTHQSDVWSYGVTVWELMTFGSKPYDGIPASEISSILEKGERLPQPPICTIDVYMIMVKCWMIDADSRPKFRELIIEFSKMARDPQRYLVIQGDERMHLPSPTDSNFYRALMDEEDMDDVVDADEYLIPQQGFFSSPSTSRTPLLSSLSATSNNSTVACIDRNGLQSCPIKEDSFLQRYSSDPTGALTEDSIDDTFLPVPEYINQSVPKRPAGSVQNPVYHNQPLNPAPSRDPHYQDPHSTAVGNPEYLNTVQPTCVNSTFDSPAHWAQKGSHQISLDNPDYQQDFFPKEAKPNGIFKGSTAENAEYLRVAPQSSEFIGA
In short: as §2

[6] = molecular target: BAF3 EGFR DEL T790M PURO POOL (Homo sapiens, UniProt P00533, DEL746-750/T790M, cells depend on it); assay: Cell proliferation (MTT), BAF3 EGFR DEL T790M; type: cell-based
Sequence of BAF3 EGFR DEL T790M PURO POOL (P00533 with tags, fused parts or gaps DEL746-750/T790M): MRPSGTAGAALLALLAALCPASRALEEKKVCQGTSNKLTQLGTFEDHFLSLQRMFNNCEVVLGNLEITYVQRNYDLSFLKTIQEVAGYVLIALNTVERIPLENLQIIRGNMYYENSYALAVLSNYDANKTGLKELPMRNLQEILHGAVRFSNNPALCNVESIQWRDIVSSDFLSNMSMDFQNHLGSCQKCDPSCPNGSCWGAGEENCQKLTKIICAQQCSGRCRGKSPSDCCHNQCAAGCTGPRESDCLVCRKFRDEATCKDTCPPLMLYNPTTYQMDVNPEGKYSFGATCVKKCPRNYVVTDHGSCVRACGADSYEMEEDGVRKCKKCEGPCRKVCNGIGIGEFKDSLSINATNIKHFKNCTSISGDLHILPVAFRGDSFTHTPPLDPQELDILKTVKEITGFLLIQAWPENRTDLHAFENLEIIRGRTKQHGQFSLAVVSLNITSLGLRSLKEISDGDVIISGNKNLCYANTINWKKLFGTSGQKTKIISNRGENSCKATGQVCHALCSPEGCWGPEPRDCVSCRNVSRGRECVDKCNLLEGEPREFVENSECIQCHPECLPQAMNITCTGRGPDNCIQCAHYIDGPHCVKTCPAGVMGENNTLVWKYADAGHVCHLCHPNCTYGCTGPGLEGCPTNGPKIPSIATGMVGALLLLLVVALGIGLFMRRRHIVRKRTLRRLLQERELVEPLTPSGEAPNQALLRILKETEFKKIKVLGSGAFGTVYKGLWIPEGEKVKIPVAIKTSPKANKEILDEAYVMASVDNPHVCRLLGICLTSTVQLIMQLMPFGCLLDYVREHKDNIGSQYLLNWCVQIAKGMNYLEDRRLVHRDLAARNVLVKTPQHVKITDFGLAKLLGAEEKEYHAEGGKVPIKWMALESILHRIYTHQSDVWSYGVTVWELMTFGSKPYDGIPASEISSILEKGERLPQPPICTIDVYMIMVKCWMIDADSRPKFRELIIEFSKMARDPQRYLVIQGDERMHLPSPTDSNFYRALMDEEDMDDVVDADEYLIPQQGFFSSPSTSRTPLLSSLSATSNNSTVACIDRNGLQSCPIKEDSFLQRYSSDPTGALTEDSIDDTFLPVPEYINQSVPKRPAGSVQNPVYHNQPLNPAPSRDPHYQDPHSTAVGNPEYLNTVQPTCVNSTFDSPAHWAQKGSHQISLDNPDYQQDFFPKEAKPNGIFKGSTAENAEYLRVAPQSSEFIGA
In short: as §1

IC50 [1] [nM]	IC50 [3] [nM]	IC50 [4] [nM]	IC50 [5] [nM]	IC50 [6] [nM]	Structure (SMILES)	IC50 [2] [nM]
< 51	51 to 100	< 51	51 to 100	< 51	C=CC(=O)Nc1cc(Nc2ncc(CC)c(Nc3ccccc3P(C)(C)=O)n2)c(OC)cc1N(C)CCN(CC)CC [Example 62, N-(2-((2-(diethylamino)ethyl)(methyl)amino)-5-((4-((2-(dimethylphosphoryl)phenyl)amino)-5-ethylpyrimidin-2-yl)amino)-4-methoxyphenyl)acrylamide]	≥ 250
< 51	< 51	< 51	< 51	< 51	C=CC(=O)Nc1ccc(OC)c(Nc2ncc(CC)c(Nc3ccccc3P(C)(C)=O)n2)c1 [Example 63, N-(3-((4-((2-(dimethylphosphoryl)phenyl)amino)-5-ethylpyrimidin-2-yl)amino)-4-methoxyphenyl)acrylamide]	≥ 250
< 51	< 51	< 51	< 51	< 51	C=CC(=O)Nc1ccc(OC)c(Nc2ncc(C)c(Nc3ccccc3P(C)(C)=O)n2)c1 [Example 64, N-(3-((4-((2-(dimethylphosphoryl)phenyl)amino)-5-methylpyrimidin-2-yl)amino)-4-methoxyphenyl)acrylamide]	≥ 250
< 51	51 to 100	< 51	< 51	< 51	C=CC(=O)Nc1ccc(OC)c(Nc2ncc(C3CC3)c(Nc3ccccc3P(C)(C)=O)n2)c1 [Example 65, N-(3-((5-cyclopropyl-4-((2-(dimethylphosphoryl)phenyl)amino)pyrimidin-2-yl)amino)-4-methoxyphenyl)acrylamide]	≥ 250
